ChEMBL document CHEMBL5724558, “Image-based profiling of drug vulnerabilities in CRC organoids” (2024)
Several values for one entry are separate records, joined by “and”; a condition that tells them apart may be missing. Equal entries are not always repeated.

Assays:
Type in all cases: functional, Homo sapiens
Design in all cases: dose or concentration left out as unconfirmed
Colon cancer organoid [1] = assay: (§1) Image-based profiling of donated chemical probes and chemogenomic kinase set in O06 CRC organoid. Image analysis is performed on the sum area metric, and the data were normalized to the DMSO control. After imaging the organoid viability is measured using the OneGloEX Luciferase Assay System. The normalized viability data and sum area are reported.
Colon cancer organoid [2] = assay: as §1, with “O09” for “O06”
Colon cancer organoid [3] = assay: as §1, with “O21” for “O06”

SMILES	Cell Viability (Colon cancer organoid [1]; Replication number 1)	Cell Viability (Colon cancer organoid [1]; Replication number 2)	Cell Viability (Colon cancer organoid [2]; Replication number 1)	Cell Viability (Colon cancer organoid [2]; Replication number 2)	Cell Viability (Colon cancer organoid [3]; Replication number 1)	Cell Viability (Colon cancer organoid [3]; Replication number 2)
COc1cc(C#N)ccc1S(=O)(=O)Nc1ccc2c(c1)cc(C)c(=O)n2C	109.695% and 120.805%	114.995% and 99.8938%	120.569% and 113.833%	161.546% and 95.5021%	105.091% and 139.321%	90.295% and 90.2148%
O=C(N[C@H]1CCCCC/C=C\C2C[C@@]2(C(=O)O)NC(=O)[C@@H]2C[C@@H](Oc3ccncc3)CN2C1=O)OC1CCCC1 (stereo partly specified) [BI 1675]	69.4015% and 71.6628%	66.5819% and 62.7776%	116.319% and 81.4707%	190.904% and 132.895%	85.4317% and 92.5614%	88.5187% and 94.3878%
COc1cc(OC)cc(-c2noc(N3CCN(C)C4(CCN(c5ccnc(C)c5)CC4)C3)n2)c1	99.0993% and 95.9195%	203.392% and 146.256%	147.791% and 90.4173%	237.296% and 126.576%	102.094% and 140.496%	79.0091% and 95.0477%
CNCCN1CCC(c2cc(CN(C)C(=O)c3cccc(Oc4ccccc4)c3)ccn2)CC1	160.666% and 144%	179.321% and 118.056%	65.766% and 84.3895%	110.837% and 98.923%	118.858% and 106.989%	108.266% and 112.768%
CC(=O)Nc1c(C(C)=O)c(=O)n(C)c2nc(-c3ccc(Cl)cc3Cl)c(-c3ccc(Cl)cc3)cc12 [NAPHTHYRIDINONE]	123.545% and 117.564%	103.77% and 94.7587%	117.091% and 130.21%	64.3844% and 79.7371%	94.8536% and 101.294%	91.9114% and 85.7143%
COc1nc2ccc([C@@](O)(c3ccccc3)C3CCN(C(C)=O)CC3)cc2c(Cl)c1Cc1ccc(-n2cccn2)cc1 [JNJ-54119936]	95.4238% and 127.913%	99.5018% and 98.8422%	195.654% and 100.967%	202.641% and 113.341%	91.3508% and 107.676%	118.142% and 99.7424%
CC(C)N(CCCNC(=O)Nc1ccc(C(C)(C)C)cc1)C[C@H]1O[C@@H](n2cc(Br)c3c(N)ncnc32)[C@H](O)[C@@H]1O	99.7362% and 93.745%	121.159% and 96.0701%	88.0955% and 91.1128%	116.782% and 110.611%	110.58% and 96.4076%	91.3203% and 86.9928%
CC1(C)C(N)=Nc2cc(OCCCCN3Cc4ccc(OCc5cn(CC(=O)N6CCC(CCN7CCCC7)CC6)nn5)cc4C3)c(OCC3CC3)cc21	120.738% and 74.8993%	69.8334% and 85.077%	129.867% and 99.2272%	184.968% and 121.159%	75.5552% and 109.928%	77.1471% and 105.251%
CO[C@@H](C)c1c(Nc2ccc([C@H](N(C)C(=O)C3CCS(=O)(=O)CC3)C(F)(F)F)cc2)cnc2cc(Cl)nn12 [NVS-MALT1]	53.942% and 90.6073%	65.826% and 102.355%	78.0421% and 97.349%	96.1339% and 95.7573%	116.026% and 99.8545%	97.0711% and 89.225%
O=C(NCCCN1CCOC1=O)c1cnc(NCc2cc(Br)ccc2Br)nc1NC1CCCC1	128.504% and 125.145%	109.486% and 115.731%	172.879% and 128.436%	143.806% and 111.114%	88.4413% and 90.6749%	101.16% and 88.408%
CCn1c(-c2nc3cc(C(=O)N4CCCC(N)C4)ccc3n2C)cc2ccccc21.Cl (stereo unspecified)	210.545% and 138.685%	140.649% and 97.743%	117.35% and 104.328%	180.446% and 129.427%	104.488% and 105.813%	105.345% and 85.3819%
CC(=O)Nc1nc(CN2CCC[C@H](Cc3cc(C)nc(C)c3)C2)cs1 [JNJ-73924149]	110.009% and 115.731%	115.696% and 107.702%	161.492% and 89.8313%	217.991% and 98.2452%	83.219% and 91.2416%	110.349% and 95.2087%
CCc1cc2cc(NS(=O)(=O)c3ccc(C#N)cc3)ccc2n(CC)c1=O	145.787% and 148.591%	141.244% and 141.715%	136.869% and 118.47%	168.563% and 119.449%	101.899% and 123.449%	90.9641% and 104.714%
O=C1[C@H](Cc2ccc(O)cc2)N2C(=O)CCN(C(=O)NCc3ccccc3)[C@H]2CN1Cc1cccc2ccccc12	96.6982% and 93.2617%	106.282% and 104.195%	80.9835% and 70.711%	121.345% and 94.0767%	89.9628% and 92.2926%	85.8858% and 90.2148%
CS(=O)(=O)N1CCN(Cc2cc3nc(-c4cccc5[nH]ncc45)nc(N4CCOCC4)c3s2)CC1 [PICTILISIB]	32.227% and 73.4455%	23.961% and 57.7892%	49.7053% and 32.4139%	55.1776% and 34.8237%	58.3035% and 68.0139%	64.7873% and 89.8165%
CCC(=O)N[C@@H]1CC[C@H](C(=O)N(C)c2ccc(-c3nc4ccccc4o3)cc2)C1 [BI 99990]	114.692% and 101.874%	112.935% and 105.893%	148.115% and 99.6283%	106.898% and 85.8708%	98.1271% and 82.0828%	97.1544% and 80.6122%
CN1CCN(c2ccnc(NCCc3ccccc3)n2)CC1 [TP-040n]	105.696% and 108.533%	89.6424% and 87.2137%	119.963% and 93.2958%	137.241% and 93.2958%	124.161% and 101.443%	125.774% and 83.8743%
Cc1noc(C)c1-c1cnc2c(-c3ccc(C(=O)O)cc3)cn([C@@H](C)c3ccccn3)c2c1 [PLX-51107]	28.5018% and 57.9866%	31.105% and 59.0281%	42.9449% and 37.558%	38.2971% and 35.6351%	101.544% and 130.503%	74.8766% and 126.73%
C[C@H]1CC(=O)Nc2cc(C(=O)NCCC3CC3)ccc2N1C(=O)N1CC2CC2C1 (stereo partly specified)	181.689% and 143.275%	157.26% and 132.873%	82.587% and 82.5348%	120.178% and 115.743%	104.914% and 116.982%	77.8753% and 111.158%
Cn1c(C2(NC(=O)c3ccc4c(C5CCCC5)c(-c5ncc(Br)cn5)n(C)c4c3)CCC2)nc2ccc(/C=C/C(=O)O)cc21 [DELEOBUVIR]	72.8568% and 101.611%	116.691% and 122.099%	177.935% and 120.27%	86.2792% and 92.0585%	112.195% and 113.344%	113.774% and 112.777%
O=C(Nc1cccnn1)N1CC(C/C=C/c2cncc(Oc3ccc(C(F)(F)F)cn3)n2)C1	109.538% and 100.234%	99.7432% and 110.394%	144.17% and 108.229%	154.84% and 92.5885%	91.4572% and 89.6507%	96.356% and 80.102%
CC(C)S(=O)(=O)c1ccc2nccc(Nc3ccc4scnc4c3)c2c1	90.1117% and 127.973%	127.825% and 117.429%	127.216% and 102.228%	64.4509% and 80.9853%	106.102% and 111.498%	112.549% and 132.422%
CC(=O)C1=C(C)N(c2cccc(C(F)(F)F)c2)C(=O)N[C@@H]1c1ccc(C#N)nc1 [BAY-678]	116.42% and 104.215%	86.788% and 60.6455%	154.648% and 117.069%	95.0691% and 89.9598%	123.826% and 98.3829%	102.879% and 115.306%
CN(C)C(=O)c1ccc(-c2cc(C(=O)N(C)C3CCCC3)no2)cc1O	136.959% and 113.074%	141.385% and 104.673%	101.196% and 104.096%	94.5921% and 98.6379%	136.03% and 124.037%	110.351% and 113.842%
O=C(NNS(=O)(=O)c1ccccc1)c1cc(-c2ccnnc2)ccc1F [WM-2474]	103.665% and 117.571%	96.3756% and 98.5103%	112.004% and 108.416%	87.165% and 94.3695%	113.818% and 97.6719%	86.2106% and 79.5377%
C=CC(=O)Nc1cccc(C(=O)Nc2ccc(Nc3cc(-c4[nH]c(SC)nc4C)ccn3)cc2)c1	120.545% and 116.4%	120.557% and 114.139%	195.827% and 119.682%	254.944% and 117.159%	87.1744% and 91.9861%	133.203% and 116.877%
